Literature values, collected in US20140106008A1, “GLYCEROL COMPOSITIONS AND SOLUTIONS” (BIO-ENERGY INGREDIENTS LIMITED, priority 2011, published 2014).

Test system: exposed organisms
Details: aquatic toxicity

## OCC(O)CO [Glycerol, propane-1,2,3-triol]
  TLm96 value, concentration that will kill 50% of the exposed organisms in 96 hours: over 1000 mg/litre
